Data taken from the supplement of paper PMC3974653.
Structures can show the parent of a compound that is named as a salt.

System: MTT (mouse pheochromocytoma)
Assay: IC50 of cell viability (ATP content)
Conditions: (24 or 48 h)
Procedure, shortened: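 The IC50 was fitted with a four-parameter logistic equation to normalised CellTiter-Glo ATP luminescence from MTT mouse pheochromocytoma cells. These cells, in white 1536-well plates, had been treated for 24 or 48 hrs with library compounds at 8 final concentrations between 0.5 nM and 46 µM, and luminescence was read after 15 minutes. Positive-control wells served as 100% and DMSO wells as 0%.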

| Compound | IC50 of cell viability [µM] |
| --- | --- |
| CCCCCCC(O)C/C=C/CCCCCCCC(=O)O (centres undefined) [POTASSIUM RICINOLEATE] | > 46 |
| C=CC[N@@H+]1/C(=C/CO)[C@@H]2C[C@H]3[C@H]1CC[C@]31c3ccccc3N3/C=C4/[C@@H]5C[C@@H]6[C@H](CC[C@@]67c6ccccc6N(/C=C\2[C@H]31)[C@@H]47)[N@@H+](CC=C)/C5=C\CO [Alcuronium chloride] | > 46 |
| CCCCc1ccc(C(=O)O)nc1 [Fusaric acid] | > 46 |
| Cn1c(=O)c2c(ncn2C)n(C)c1=O [Caffeine, citrated] | > 46 |
| CCCCNCC(O)c1ccc(O)cc1 (centres undefined) [Bametano] | > 46 |
| C[C@H](CCC(=O)O)[C@@H]1CC[C@H]2[C@@H]3[C@@H](CC[C@@]21C)[C@@]1(C)CC[C@H](O)C[C@@H]1C[C@@H]3O [Chenodiol] | > 46 |
| Clc1ccc(Nc2nnc(Cc3ccncc3)c3ccccc23)cc1 [VATALANIBUM] | > 46 |
| O=NN(CCCl)C(=O)NC1CCCCC1 [LOMUSTINE] | > 46 |
| COC1=C(OC)C=C(CNCC(O)COC2=CC=C3NC(=O)\C=C/C3=C2)C=C1 (centres undefined) [TOBORINONE] | > 46 |
| NC[C@@H]1O[C@@H](O[C@H]2[C@@H](O)[C@H](O[C@@H]3[C@@H](O)[C@H](N)C[C@H](N)[C@H]3O[C@H]3O[C@H](CN)[C@@H](O)[C@H](O)[C@H]3N)O[C@@H]2CO)[C@H](N)[C@@H](O)[C@@H]1O [Neomycin Trisulfate Hydrate] | > 46 |
| O=C(NCCCN1CCOCC1)c1ccc(Cl)cc1 [Eprobemida] | > 46 |
| COc1ccc(CCN(C)CCCN2CCc3cc(OC)c(OC)cc3CC2=O)cc1OC [ZATEBRADINUM] | > 46 |
| CCOCCOC(C)=O [2-Ethoxyethyl acetate] | > 46 |
| CC(C)Cc1ccc(CC(=O)O)cc1 [Ibufenac] | > 46 |
| CCN(CC)C(=O)N1CCN(C)CC1.O=C(O)CC(O)(CC(=O)O)C(=O)O [Diethylcarbamazine citrate] | > 46 |
| CCCCC(CC)CCC(CC(C)C)OS(=O)(=O)[O-] (centres undefined) [SODIUM TETRADECYL SULFATE] | > 46 |
| CCC1(C)CC(=O)NC(=O)C1 [Bemegride] | > 46 |
| Cn1c(=O)c2[nH]cnc2n(C)c1=O [OXTRIPHYLLINE] | > 46 |
| Clc1ccc(CO[C@@H](Cn2ccnc2)c2ccc(Cl)cc2Cl)c(Cl)c1 [Miconazole] | > 46 |
| CN(CCOc1ccc(NS(C)(=O)=O)cc1)CCc1ccc(NS(C)(=O)=O)cc1 [Dofetilide] | > 46 |
| CC(Cc1ccccc1)N(C)C (centres undefined) [DIMETAMFETAMINUM] | > 46 |
| C/C(=C(/CCO)SS/C(CCO)=C(\C)N(C=O)Cc1cnc(C)nc1N)N(C=O)Cc1cnc(C)nc1N [THIAMINE DISULFIDE] | > 46 |
| C[C@H]1CCC[C@H](O)CCCCCc2cc(O)cc(O)c2C(=O)O1 [Zearalanol] | > 46 |
| S=C=S [Carbon disulfide] | > 46 |

| Compound | IC50 of cell viability [µM] |
| --- | --- |
| O=[N+]([O-])c1ccccc1 [Nitrobenzene] | > 46 |
| C/C(=C\C(=O)OCCCCCCCCC(=O)O)C[C@@H]1OC[C@H](C[C@@H]2O[C@H]2[C@@H](C)[C@H](C)O)[C@@H](O)[C@H]1O [MUPIROCIN] | > 46 |
| ClC=C(Cl)Cl [Trichloroethylene] | > 46 |
| C/C=C/c1ccc(O)c(OC)c1 [Isoeugenol] | > 46 |
| N[C@@H](Cc1cc(I)c(Oc2cc(I)c(O)c(I)c2)c(I)c1)C(=O)O [Levothyroxine] | > 46 |
| O=C(CS(=O)Cc1ccco1)NC/C=C/COc1cc(CN2CCCCC2)ccn1 (centres undefined) [LAFUTIDINE] | > 46 |
| C=CCN.Cl.ClC[C@H]1CO1 [Sevelamer hydrochloride] | > 46 |
| O=C(NOCC(O)CO)c1ccc(F)c(F)c1Nc1ccc(I)cc1F (centres undefined) | > 46 |
| CC[N+](CC)(CC)CC.[Cl-] [Tetraethylammonium chloride] | > 46 |
| N[S+](=O)([O-])c1ccc(C(=O)O)cc1 [CARZENIDUM] | > 46 |
| CNC(=N)NCCC[C@H](N)C(=O)O [NG-Monomethyl-L-arginine acetate] | > 46 |
| O=[S+]([O-])(O)CCC[S+](=O)([O-])O.[NaH] [1,3-PROPANEDISULFONIC ACID, DISODIUM SALT] | > 46 |
| O=C(O)CN(CCN(CC(=O)O)CC(=O)O)CC(=O)O [EDETATE CALCIUM DISODIUM] | > 46 |
| CCOC(=O)C1(c2ccccc2)CCN(CCC(C#N)(c2ccccc2)c2ccccc2)CC1 [Diphenoxylate] | > 46 |
| CC(O)CN(C)C (centres undefined) [Dimepranolum] | > 46 |
| N#CC(C#N)=Cc1ccc(O)c(O)c1 [Tyrphostin 23] | > 46 |
| CNC1C(OC2C(O[C@@H]3C(O)C(O)[C@@H](NC(=N)N)C(O)C3NC(=N)N)OC(C)[C@@]2(O)CO)OC(CO)C(O)C1O.O=[S+]([O-])(O)O (some centres undefined) [DIHYDROSTREPTOMYCIN SULFATE] | > 46 |
| CO[C@@H]1[C@@H]([C@H](C)[C@@H]2O[C@@]3(CC[C@@](C)([C@H]4CC[C@@](C)([C@H]5O[C@H]([C@H]6O[C@](C)(O)[C@H](C)C[C@@H]6C)C[C@H]5O[C@H]5C[C@@H](OC)[C@H](OC)[C@@H](C)O5)O4)O3)C[C@@H](O)[C@@H]2C)O[C@@](O)(CC(=O)[O-])[C@H](C)[C@H]1OC [Maduramicin ammonium] | > 46 |
| CN1[C@@H]2CC[C@@H]1CC(OC(=O)[C@H](CO)c1ccccc1)C2 (some centres undefined) [ATROPINE] | > 46 |
| Cc1ncc([N+](=O)[O-])n1CC(C)O (centres undefined) [SECNIDAZOLE] | > 46 |
| N=C(N)N/N=C/c1c(Cl)cccc1Cl [GUANABENZ] | > 46 |
| COc1ccc(C(=O)N2CCCC2=O)cc1 [ANIRACETAM] | > 46 |
| COc1cc(C[C@H](C)N)c(OC)cc1C [(+)-2,5-Dimethoxy-4-methylamphetamine] | > 46 |

Further lines, results first:

| IC50 of cell viability [µM] | Compound |
| --- | --- |
| > 46 | CCN(CC)C(=O)c1ccc(O)c(OC)c1 [Ethamivan] |
| > 46 | Nc1ccc([S+](=O)([O-])NCc2ccccc2)cc1 [Benzylsulfamide] |
| > 46 | NC(=O)c1ccccc1O [SALICYLAMIDE] |
| > 46 | CCOC(=O)Oc1c(OC)cc(C(=O)O[C@@H]2C[C@H]3CN4CCc5c([nH]c6cc(OC)ccc56)[C@@H]4C[C@@H]3[C@@H](C(=O)OC)[C@H]2OC)cc1OC [Syrosingopine] |
| > 46 | C[C@@H](CNC1CCCCC1)OC(=O)c1ccccc1 [Hexylcaine hydrochloride] |
| > 46 | COC1=CC=C2CN(C)CC[C@@]34\C=C/[C@H](O)C[C@@H]3OC1=C24 [GALANTHAMINE] |
| > 46 | CCN(CC)C(=O)c1cc([S+](=O)([O-])Cc2ccccc2)c(N2CCC(c3ccccc3)CC2)cc1N(CC)CCN(C)C |
| > 46 | CN1CCN(C(c2ccccc2)c2ccccc2)CC1 [Cyclizine hydrochloride] |
| > 46 | O=C(OOC(=O)c1ccccc1)c1ccccc1 [Benzoyl peroxide] |
| > 46 | O=C(O)CCCc1ccccc1 [SODIUM PHENYLBUTYRATE] |
| > 46 | CCCN(CCC)[S+](=O)([O-])c1ccc(C(=O)O)cc1 [Probenecid] |
| > 46 | Cc1cccc(Nc2ncccc2C(=O)O)c1C [ACIDUM NIXYLICUM] |
| > 46 | COc1cc(C(=O)NC2CCCNC2)cc(OC)c1OC (centres undefined) [TROXIPIDE] |
| > 46 | CC(=O)NC1[C@H]([C@H](O)[C@H](O)CO)OC(C(=O)O)=C[C@H]1NC(=N)N (some centres undefined) [Zanamivir] |
| > 46 | Cc1[nH]cnc1CN1CCc2c(c3ccccc3n2C)C1=O [ALOSETRON HYDROCHLORIDE] |
| > 46 | [Na+].CCN1CCN(C(=O)N[C@H](C(=O)N[C@H]2[C@@H]3SC(C)(C)[C@@H]([N@]3C2=O)C([O-])=O)C4=CC=CC=C4)C(=O)C1=O [Piperacillin sodium salt] |
| > 46 | Cc1ccc(C(=O)[C@H](C)CN2CCCCC2)cc1 [Tolperisone HCl] |
| > 46 | C=C1CCC2[C@](C)(CO)C(O)CC[C@]2(C)C1C/C=C1/C(=O)OCC1O (some centres undefined) [ANDROGRAPHOLIDE] |
| > 46 | CC(=O)O[C@H](C)OC(=O)[C@@H](C)c1ccc(-c2ccccc2)c(F)c1 [Flurbiprofen Axetil] |
| > 46 | COC(=O)Nc1nc2ccc([S+]([O-])c3ccccc3)cc2[nH]1 (centres undefined) [Oxfendazole] |
| > 46 | Cl.CC(C)NC/1=C(C)/N(C)N(C1=O)C2=CC=CC=C2 [RAMIFENAZONE] |
| > 46 | CN1C2CCC1CC(OC(=O)c1c[nH]c3ccccc13)C2 (centres undefined) [TROPISETRON] |
| > 46 | CCC(Oc1ccccc1)C(=O)NC1C(=O)N2C1SC(C)(C)C2C(=O)[O-] (centres undefined) [Propicillin] |
| > 46 | CCC(C)(C)OC(=O)N[C@@H](Cc1c[nH]c2ccccc12)C(=O)N[C@@H](CCSC)C(=O)N[C@@H](CC(=O)O)C(=O)N[C@@H](Cc1ccccc1)C(N)=O [AMOGASTRIN] |
| > 46 | Cc1c(Cl)cccc1Nc1ccccc1C(=O)O [TOLFENAMIC ACID] |
| > 46 | CN\1C(=O)C(=C(\N=C1C(C)(C)NC(=O)C2=NN=C(C)O2)C(=O)NCC3=CC=C(F)C=C3)/O [Raltegravir] |
| > 46 | COC1=C(C=CC=C1)N2CCN(CCCN\C3=C\C(=O)N(C)C(=O)N3C)CC2 [URAPIDIL] |
